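At the GI50, growth is halved. Definition used: TGI = concentration required for complete inhibition of growth.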
Key:
Test in all cases: DTP human tumour cell line panel, 384-well format
[1] = system: NCI-H460 NSCLC
[2] = system: MCF7 breast
[3] = system: A498 renal
[4] = system: HL-60(TB) leukemia
[5] = system: EKVX NSCLC
[6] = system: HOP-92 NSCLC
[7] = system: UACC-62 melanoma
[8] = system: NCI-H23 lung
[9] = system: SF-268 CNS
[10] = system: TK-10 renal
[11] = system: ACHN renal
[12] = system: SF-539 CNS
[13] = system: SNB-19 CNS
[14] = system: NCI-H226 lung
[15] = system: KM12 colon
[16] = system: HCT-15 colon
[17] = system: SK-MEL-5 melanoma
[18] = system: SR leukemia
[19] = system: HOP-62 NSCLC
[20] = system: UACC-257 melanoma
[21] = system: IGROV1 ovarian
[22] = system: SNB-75 CNS
[23] = system: CAKI-1 renal
[24] = system: SK-MEL-2 melanoma
[25] = system: NCI-H322M lung
[26] = system: U251 glioblastoma
[27] = system: MALME-3M melanoma
[28] = system: OVCAR-3 ovarian
[29] = system: SN12C renal
[30] = system: M14 melanoma
[31] = system: HT29 colon
[32] = system: A549 NSCLC
[33] = system: SK-OV-3 ovarian
[34] = system: OVCAR-4 ovarian
[35] = system: DU-145 prostate
[36] = system: OVCAR-8 ovarian
[37] = system: NCI-H522 lung
[38] = system: HCT-116 colon
[39] = system: BT-549 breast
[40] = system: OVCAR-5 ovarian
[41] = system: UO-31 renal
[42] = system: MDA-MB-468 breast
[43] = system: MDA-MB-435 melanoma
[44] = system: 786-0 renal
[45] = system: SK-MEL-28 melanoma
[46] = system: MDA-MB-231 breast
[47] = system: SW-620 colon
[48] = system: T-47D breast
[49] = system: K-562 leukemia
[50] = system: SF-295 CNS
[51] = system: MOLT-4 leukemia
[52] = system: RXF 393 renal
[53] = system: PC-3 prostate
[54] = system: COLO 205 colon

CC[C@@]1(O)C(=O)OCc2c1cc1n(c2=O)Cc2c-1nc1cc(F)c(C)c3c1c2[C@@H](N)CC3
GI50 [1]: < 0.01 µM
TGI [1]: 0.0167 µM
GI50 [2]: < 0.01 µM
TGI [2]: < 0.01 µM
GI50 [3]: < 0.01 µM
TGI [3]: 0.0142 µM
GI50 [4]: < 0.01 µM
TGI [4]: < 0.01 µM
GI50 [5]: < 0.01 µM
TGI [5]: 0.243 µM
GI50 [6]: < 0.01 µM
TGI [6]: 0.011 µM
GI50 [7]: < 0.01 µM
TGI [7]: < 0.01 µM
GI50 [8]: < 0.01 µM
TGI [8]: < 0.01 µM
GI50 [9]: < 0.01 µM
TGI [9]: < 0.01 µM
GI50 [10]: < 0.01 µM
TGI [10]: 0.608 µM
GI50 [11]: < 0.01 µM
TGI [11]: < 0.01 µM
GI50 [12]: < 0.01 µM
TGI [12]: < 0.01 µM
GI50 [13]: < 0.01 µM
TGI [13]: 0.0259 µM
GI50 [14]: < 0.01 µM
TGI [14]: < 0.01 µM
GI50 [15]: < 0.01 µM
TGI [15]: < 0.01 µM
GI50 [16]: < 0.01 µM
TGI [16]: 0.12 µM
GI50 [17]: < 0.01 µM
TGI [17]: < 0.01 µM
GI50 [18]: < 0.01 µM
TGI [18]: < 0.01 µM
GI50 [19]: < 0.01 µM
TGI [19]: < 0.01 µM
GI50 [20]: < 0.01 µM
TGI [20]: < 0.01 µM
GI50 [21]: < 0.01 µM
TGI [21]: 0.103 µM
GI50 [22]: < 0.01 µM
TGI [22]: < 0.01 µM
GI50 [23]: < 0.01 µM
TGI [23]: 0.0117 µM
GI50 [24]: < 0.01 µM
TGI [24]: 0.0292 µM
GI50 [25]: < 0.01 µM
TGI [25]: 0.0174 µM
GI50 [26]: < 0.01 µM
TGI [26]: < 0.01 µM
GI50 [27]: < 0.01 µM
TGI [27]: 0.084 µM
GI50 [28]: < 0.01 µM
TGI [28]: 0.0317 µM
GI50 [29]: < 0.01 µM
TGI [29]: < 0.01 µM
GI50 [30]: < 0.01 µM
TGI [30]: 0.0187 µM
GI50 [31]: < 0.01 µM
TGI [31]: 0.0107 µM
GI50 [32]: < 0.01 µM
TGI [32]: 0.0431 µM
GI50 [33]: < 0.01 µM
TGI [33]: < 0.01 µM
GI50 [34]: 0.019 µM
TGI [34]: 0.308 µM
GI50 [35]: < 0.01 µM
TGI [35]: < 0.01 µM
GI50 [36]: < 0.01 µM
TGI [36]: 0.0398 µM
GI50 [37]: < 0.01 µM
TGI [37]: < 0.01 µM
GI50 [38]: < 0.01 µM
TGI [38]: 0.0221 µM
GI50 [39]: < 0.01 µM
TGI [39]: < 0.01 µM
GI50 [40]: < 0.01 µM
TGI [40]: 0.043 µM
GI50 [41]: < 0.01 µM
TGI [41]: < 0.01 µM
GI50 [42]: < 0.01 µM
TGI [42]: < 0.01 µM
GI50 [43]: < 0.01 µM
TGI [43]: 0.177 µM
GI50 [44]: < 0.01 µM
TGI [44]: < 0.01 µM
GI50 [45]: < 0.01 µM
TGI [45]: 0.133 µM
GI50 [46]: 0.0233 µM
TGI [46]: 0.617 µM
GI50 [47]: < 0.01 µM
TGI [47]: 0.108 µM
GI50 [48]: < 0.01 µM
TGI [48]: < 0.01 µM
GI50 [49]: < 0.01 µM
TGI [49]: 0.132 µM
GI50 [50]: < 0.01 µM
TGI [50]: < 0.01 µM
GI50 [51]: < 0.01 µM
TGI [51]: < 0.01 µM
GI50 [52]: < 0.01 µM
TGI [52]: < 0.01 µM
GI50 [53]: < 0.01 µM
TGI [53]: 1.05 µM
GI50 [54]: < 0.01 µM
TGI [54]: 0.159 µM

Source: PubChem BioAssay (NCI)
